≈ marks a conversion by molar mass, not a printed value. Where “and” joins values, the source holds several entries; their conditions need not be identical. Identical values can stand only once. Like-named read-outs stand apart in the source and are kept apart here.
Assays:
[1] = Solubility in water (UV-visible spectrometry); format: physicochemical; settings: for solubility: water
Text: The hydrophobicity or solubility of a compound can be measured by standard methods and in particular by UV-visible spectrometry.

pKa in water at 25° C. = format: physicochemical
Procedure: The pKa (or acid constant) is defined as pKa=−log10(Ka), where Ka is the acid dissociation constant which is measured in a standard manner for such pKa. The recommended standard measurement method for high, basic pKa is preferably that described by Popov and al, IUPAC—Guidelines for NMR measurements for determination of high and low pKa Pure Apl. Chem., Vol. 78, No. 3, pp. 663-675, 2006.

Log P = format: physicochemical; settings: for logP: Exp
[2] = NaCl extraction from 0.4M NaCl water by ASM + Calix[4]Est in chloroform (Example 11)
Procedure: The extraction composition is obtained by solubilizing an amount of 4-tert-butyl Calix[4]arene tetraethyl Ester (CAS No. 97600-39-0) and ASM in chloroform CHCl3 to obtain a final concentration after solubilization of the CEM and ASM of 0.3 mol/L for Calix[4]Est and of 0.3 mol/L for ASM, respectively. These sealed formulations were then orbitally stirred at 500 rpm for 2 hours after adding an equivalent volume of twice distilled water to allow water saturation of the entire formulation and control of pH output (pH=7). The extraction composition is then put to stand to settle. All the compositions tested are stable and rapidly decanted (a few minutes at the most).
A 0.4 mol/L NaCl aqueous solution was prepared from twice distilled water.
The organic extraction composition is then slightly heated to promote solubilization of the compounds by hot air gun (temperature of about 50 to 60° C.) for a few seconds (10 to 30 seconds) until a clear solution is obtained.
3 mL of the organic extraction composition is then removed from the lower phase of the settled two-phase mixture and transferred to a vial containing 3 mL of salt water at 0.4 M NaCl and then the flask is sealed and orbitally stirred (at 500 revolutions per minute), for 2 hours at room temperature (RT), that is to say between 20 and 25° C. In the case of extraction at 60° C., magnetic stirring (at 500 revolutions per minute), for 2 hours, is carried out with indirect heating in a metal mold on a heating plate. It is verified that droplets of the order of 1-2 mm are present during these agitations in order to be certain to achieve equilibrium in the NaCl distribution between the two liquid phases at the end of stirring. The appearance of the organic and aqueous phases is clear and colorless or slightly cloudy.
After stirring for 2 hours, stirring is stopped and the solution is put to stand to settle within 10 minutes, at least until the two phases have completely separated off, at the temperature of the test. The upper aqueous phase is then removed and then stirred and diluted for analysis of its salinity by a Metrohm Ion Chromatograph incorporating a suitable cation analysis column and a suitable anion analysis column. Similarly, the initial aqueous solution of NaCl at 0.4M is also analyzed by this ion chromatograph to determine its relative molar concentration in sodium and in chlorides. AN extractions and analyzes were duplicated.

[3] = NaCl extraction from 0.2M NaCl water by ASM/CEM composition, ion chromatography of treated water; settings: ASM: 3TFMPhOH; CEM 0.2M; NaCl 0.2M water
Procedure: To 3 mL of 3-(trifluoromethyl)phenol, was added 217 mg of Dibenzo-18-crown-6 in order to obtain a formulation with 0.2 mole/L of DB18C6. This sealed formulation was then orbitally stirred at 500 rpm overnight after 1 mL of distilled water was added twice to allow water saturation of the whole.
The next morning, an aqueous 0.2 mol/L NaCl solution was prepared from twice distilled water, while the formulation that was stirred overnight was allowed to stand for decantation. A clear decantation of the two colorless phases is obtained in a few minutes. 3 mL of the organic extraction solution is then removed and transferred to a flask containing 3 mL of this salt water containing 0.2 M NaCl, then the flask is sealed and orbitally stirred (usually 500 rpm), for 3 hours and at room temperature. It is verified that droplets of the order of 1-2 mm are present in quantity at the selected stirring speed (400 to 900 rpm).
After stirring for 2 hours, stirring is stopped and the whole is left to stand for decantation for at least 10 minutes until the two phases are completely separated. The upper aqueous phase is then removed and then stirred and diluted for analysis of its salinity by a Metrohm Ion Chromatography Incorporating a suitable cation analysis column and a suitable anion analysis column. Similarly, the initial aqueous solution of 0.2M NaCl is also analyzed by this ion chromatography equipment to determine its relative concentration of sodium and chlorides. […]

[4] = methanol, published complexing constants; cited from earlier work
[5] = methanol; cited from earlier work
[6] = NaCl extraction from 0.2M NaCl water by ASM/CEM composition, ion chromatography of treated water; settings: dichloromethane instead of 3TFMPhOH
[7] = RT, CEM 0.3 Mol/L, ASM 0.3 Mol/L in CHCl3, 0.4 M NaCl

pKa (pKa in water at 25° C.) | Solubility in water [1] [µM] | SMILES | Extraction rate at 23° C., Cl− [3] [%] | Extraction rate at 23° C., Na+ [3] [%] | Extraction rate at 23° C., mean NaCl [3] [%] | Log K(Na+, MeOH, 25° C.) [4] | Log K(K+, MeOH, 25° C.) [5] | other results
– | 1100 (≈ 396 µg/mL) | c1ccc2c(c1)OCCOCCOc1ccccc1OCCOCCO2 [DB18C6, Dibenzo[b,k]-1,4,7,10,13,16-hexaoxacyclooctadecane] | 38.8 | 30.8 | 34.6 | 4.36-4.49 | 5.12 | logP (Log P): 2.2; NaCl extraction with the ASM replaced by dichloromethane [6]: ≤ 1.6%
– | 2500 (≈ 1180 µg/mL) | c1ccc2c(c1)OCCN1CCOCCOCCN(CCO2)CCOc2ccccc2OCC1 [DB[2.2.2], 5,6,14,15-DiBenzo-4,7,13,16,21,24-hexaoxa-1,10-diazabicyclo[8.8.8] hexacosane] | – | – | – | 7.60 | 8.74 | –
– | 36000 (≈ 13400 µg/mL) | C1CCC2OCCOCCOC3CCCCC3OCCOCCOC2C1 (stereo not shown) [DC18C6, Dicyclohexano-1,4,7,10,13,16-hexaoxacyclooctadecane] | 30.3 | 29.1 | 29.7 | 4.27 | 5.97 | –
– | 3000 (≈ 1450 µg/mL) | C1CCC2OCCN3CCOCCOCCN(CCOC2C1)CCOC1CCCCC1OCC3 (stereo not shown) [DC[2.2.2], 5,6,14,15-DiCyclohexano-4,7,13,16,21,24-hexaoxa-1,10-diazabicyclo[8.8.8] hexacosane] | – | – | – | 6.02 | 6.92 | –

Second part, the compound before the results:

SMILES | pKa (pKa in water at 25° C.) | Solubility in water [1] [µM] | Extraction rate at 23° C., Cl− [3] [%] | Extraction rate at 23° C., Na+ [3] [%] | Extraction rate at 23° C., mean NaCl [3] [%] | Log K(Na+, MeOH, 25° C.) [4] | Log K(K+, MeOH, 25° C.) [5] | other results
OCc1cc(C(F)(F)C(F)(F)C(F)(F)C(F)(F)F)cc(C(F)(F)C(F)(F)C(F)(F)C(F)(F)F)c1 | 14 | – | – | – | – | – | – | solubility [1]: 0.5 µM (≈ 0.272 µg/mL)
OCc1cc(C(F)(F)F)c(C(F)(F)F)c(C(F)(F)F)c1 | 13.6 | – | – | – | – | – | – | solubility ([1]; read-out: Solubility in water): 390 µM (≈ 122 µg/mL)
Oc1cccc(C(F)(F)F)c1 [ASM 1, 3-(Trifluoromethyl)phenol] | 8.68 | – | – | – | – | – | – | Log P (Log P): 2.95
OCc1cccc(C(F)(F)F)c1 [ASM 2, [3-(Trifluoromethyl)phenyl]methanol] | 14.7 | 32000 (≈ 5640 µg/mL) | – | – | – | – | – | –
OCc1cc(C(F)(F)F)cc(C(F)(F)F)c1 [ASM 3, [3,5-Bis(Trifluoromethyl)phenyl]methanol] | 14.7 | – | – | – | – | – | – | solubility ([1]; read-out: Solubility in water): 2290 µM (≈ 559 µg/mL); NaCl - 20° C. % ext (average) ([2]; 20° C., average molar extraction): 7.9%; Mol % Cl- extracted from the water to be treated ([2]; 60° C., CEM 0.3 Mol/L, ASM 0.3 Mol/L in CHCl3, 0.4 M NaCl): not detected; NaCl - 60° C. % ext (average) ([2]; 60° C., average molar extraction): 0.0%; Mol % Cl- extracted from the water to be treated [2, 7]: 8.2% and 8.8%; Mol % Na+ extracted from the water to be treated [2, 7]: 6.8% and 7.6%; Δ % ext ([2]; difference 20° C. minus 60° C.): 7.9%
OCc1cccc(C(F)(F)C(F)(F)C(F)(F)C(F)(F)F)c1 [ASM 5, [3-(Perfluorobutyl)phenyl]methanol] | 14.7 | < 77 | – | – | – | – | – | solubility [1]: < 77 µM
OCc1cc(C(F)(F)C(F)(F)C(F)(F)F)cc(C(F)(F)C(F)(F)C(F)(F)F)c1 [ASM 6, [3,5-(Perfluoropropyl)phenyl]methanol] | 14.2 | – | – | – | – | – | – | solubility [1]: < 70 µM
c1ccc2c(c1)OCCOCCOCCOCCO2 [B15C5, Benzo[b]-1,4,7,10,13-pentaoxa-cyclopentadecane] | – | – | 12.5 | 17.2 | 14.8 | 3.03 | 3.93 | logP (Log P): 0.91
c1ccc2c(c1)OCCOCCOCCOc1ccccc1OCCOCCO2 [DB21C7, 6,7,9,10,12,13,20,21,23,24-Decahydrodibenzo[b,k][1,4,7,10,13,16,19] heptaoxacyclohenicosine] | – | – | 20.7 | 9.4 | 15.2 | 2.4 | 4.19 | –
c1ccc2c(c1)OCCOCCOCCOc1ccccc1OCCOCCOCCO2 [DB24C8, 6,7,9,10,12,13,20,21,23,24,26,27-Dodecahydrodibenzo[b,n][1,4,7,10,13,16,19,22] octaoxacyclotetracosine] | – | – | 37.1 | 35.5 | 36.3 | 2.25 and 2.35 | 3.61 | logP (Log P): 2.11
